Assay results taken from PubChem BioAssay (NCI).
Several values for one entry are separate records, joined by “and”; a condition that tells them apart may be missing. Identical values can stand only once.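 Where inhibition never reached the appropriate level, the endpoint shown equals the highest concentration tested. Otherwise, values were interpolated linearly from a five-concentration, 48-hour dose response in 96-well plates. GI50 is the concentration that inhibits growth by half. TGI: total growth inhibition.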

Key:
Experiment in all cases: DTP human tumour cell line panel, 48 h
M14 melanoma = system: M14 melanoma
SNB-19 CNS = system: SNB-19 CNS
OVCAR-8 ovarian = system: OVCAR-8 ovarian
SK-MEL-2 melanoma = system: SK-MEL-2 melanoma
CCRF-CEM leukemia = system: CCRF-CEM leukemia
U251 CNS = system: U251 CNS
HOP-92 NSCLC = system: HOP-92 NSCLC
BT-549 breast = system: BT-549 breast
786-0 renal = system: 786-0 renal
SK-MEL-28 melanoma = system: SK-MEL-28 melanoma

| Structure (SMILES) | GI50 (M14 melanoma) | TGI (M14 melanoma) | GI50 (SNB-19 CNS) | TGI (SNB-19 CNS) | GI50 (OVCAR-8 ovarian) | TGI (OVCAR-8 ovarian) | GI50 (SK-MEL-2 melanoma) | TGI (SK-MEL-2 melanoma) | GI50 (CCRF-CEM leukemia) | TGI (CCRF-CEM leukemia) | GI50 (U251 CNS) | TGI (U251 CNS) | GI50 (HOP-92 NSCLC) | TGI (HOP-92 NSCLC) | GI50 (BT-549 breast) | TGI (BT-549 breast) | GI50 (786-0 renal) | TGI (786-0 renal) | GI50 (SK-MEL-28 melanoma) | TGI (SK-MEL-28 melanoma) |
| --- | --- | --- | --- | --- | --- | --- | --- | --- | --- | --- | --- | --- | --- | --- | --- | --- | --- | --- | --- | --- |
| O=C(O)c1cccc(COc2ccc([N+](=O)[O-])cc2Cl)c1 | > 100 µM | > 100 µM | > 100 µM | > 100 µM | 86.4 µM | > 100 µM | > 100 µM | > 100 µM | > 100 µM | > 100 µM | > 100 µM | > 100 µM | 45.2 µM | > 100 µM | 53.4 µM | > 100 µM | > 100 µM | > 100 µM | > 100 µM | > 100 µM |
| C#CCOc1cccc(Nc2ncnc3c(NC(=O)C=C)cccc23)c1 | 19.4 µM | 67.8 µM | 39.5 µM | > 100 µM | 21 µM | 70.1 µM | 19.8 µM | 63.7 µM | 16.5 µM | > 100 µM | 30.4 µM | > 100 µM | 13.6 µM | 42.6 µM | 13.9 µM | 89.9 µM | 19.1 µM | 52.7 µM | 20.6 µM | 88.6 µM |
| O=C(/C(=C\c1c(-c2ccccc2)[nH]c2ccccc12)S(=O)(=O)c1ccccc1)c1ccccc1 | 15.6 µM | > 100 µM | > 100 µM | > 100 µM | > 100 µM | > 100 µM | > 100 µM | > 100 µM | > 100 µM | > 100 µM | 8.64 µM | > 100 µM | 4.95 µM | > 100 µM | > 100 µM | > 100 µM | > 100 µM | > 100 µM | > 100 µM | > 100 µM |
| COc1cc2c(Nc3cc(Cl)c(OC)c(Cl)c3)c(C#N)cnc2cc1OCCCN1CCN(C)CC1 | 1.1 µM | 2.57 µM | 4.57 µM | 14.9 µM | 1.24 µM | 4.33 µM | 1.32 µM | 2.9 µM | 2.04 µM | 10.8 µM | 1.92 µM | 4.05 µM | 7.83 µM | 19.4 µM | 3.83 µM | 13.8 µM | 1.73 µM | 4.54 µM | 1.97 µM | 4.53 µM |
| CN(C)C(=S)SSC(=S)N(C)C | 14.4 µM | 30 µM and > 61.7 µM and > 51.3 µM | 25.4 µM | > 100 µM | 15.8 µM and 5.61 µM and 16.4 µM | 30.5 µM and 65.8 µM and 36.1 µM | 34.2 µM and 57 µM and 17 µM | > 100 µM and 39.4 µM | – | 37.2 µM and 5.68 µM | 12.6 µM | 26 µM and > 65.3 µM and 38.5 µM | 17.3 µM and 59.5 µM and 18.4 µM | 42.8 µM and > 100 µM and 36.7 µM | – | 30.6 µM and 31.3 µM and 28.4 µM | 18.2 µM and 35.2 µM and 17.3 µM | 33.4 µM and > 80.9 µM and 36.5 µM | 17.8 µM | 42.4 µM and > 89.9 µM and > 54 µM |
| Nc1ccccc1O.O.O=C(O)C1[O][Sb][O]C1C(=O)O (configuration not stated) | 11.5 µM | 25.9 µM | 55.5 µM | > 100 µM | 14.9 µM | 32.9 µM | 15 µM | 32.1 µM | 0.713 µM | – | 13.8 µM | 27.8 µM | 21 µM | 40.2 µM | 14.9 µM | 30.6 µM | 10.5 µM | 26 µM | 10.2 µM | 24.6 µM |
| C=CC(=O)N1CN(C(=O)C=C)CN(C(=O)C=C)C1 | 2.85 µM | 7.86 µM | 33.1 µM | > 100 µM | 2.93 µM | > 100 µM | 5.46 µM | 47.4 µM | 2.82 µM | 9.78 µM | 4.34 µM | 16.5 µM | 3.56 µM | 13 µM | 6.68 µM | 20.7 µM | 7.15 µM | 24.7 µM | 4.02 µM | 16.2 µM |
